Source: US20080161248A1, “Methods and Compositions for Therapeutic Treatment” (priority 2006, published 2008)
Where two headings read alike, the source gives them in different places.

Experiments:
[1] = tested on: LEW responder splenocytes with irradiated BN stimulators (lymphocyte proliferation); assay: Mixed lymphocyte reaction (MLR) with spleen cells of treated Lewis rats; assay type: cell-based, rat; details: Lewis rats 1 mg/kg i.v.; spleens 4 hr after dosing; R:S ratios 0.5:1, 1:1, 5:1
Experimental: Animals: 8-9 weeks-old Lewis and Brown Norway male rats were obtained from Charles River Laboratories. […] Treatment: Lewis rats were treated with different single doses of LNS 0694i.p. 30 minutes prior to single i.v. injections of tacrolimus at a concentration of 1 mg/kg as described in the table below. Spleens were collected at 4 hr after administration of FK506 for use in the in vitro mixed lymphocyte reaction (MLR) and Con A assays. […] Mixed lymphocyte reactions: A single cell suspension of the spleen of each rat on test (LEW, responder) was prepared with a Dounce homogenizer and wash-medium. The cell suspension was depleted of red blood cells (treatment with NH4CL/Tris buffer) and washed twice with wash medium before resuspending in complete medium (CM; […] A single cell suspension of splenocytes from five Brown Norway rats (BN, stimulators) was prepared with the same method. The BN splenocytes were pooled and irradiated with 1,500-2,000 rad (cesium source) before use. Varying numbers of responder cells were mixed with a constant number of stimulators (105) in 96-well, U-bottom cell culture plates to give a final responder:stimulator (R:S) ratio of 10:1,5: 1, 1:1 and 0.5:1 in 200 μl CM. […] The results of the MLR assays [thymidine incorporation as counts per minute (CPM)] are expressed as mean ±SD.

[2] = liver transplantation, European study, 12-month post-transplant; cited from earlier work
[3] = body surface area corrections, cited from earlier work
[4] = tested on: mouse spleen cells, response to Con A; assay: In vitro Con A assay on spleen cells; assay type: cell-based; details: high ([…]10^6 cells/well) and low (8×10^5 cells/well) cell concentration
Excerpt: (§1) Animals: 8-9 weeks-old Lewis and Brown Norway male rats were obtained from Charles River Laboratories. General procedures for animal care and housing was in accordance with the National Research Council (NRC) Guide for the Care and Use of Laboratory Animals (1996) and the Animal Welfare Standards incorporated in 9 CFR Part 3, 1991.
(§2) Spleens were collected for use in in vitro Con A and LPS assays.
Results: FIGS. 8 and 9 show the effect of quercetin and tacrolimus on response of mouse spleen cells to Con A at a high (1.6×10^6 cells/well) and low (8×10^5 cells/well) cell concentration, respectively.
Spleen cells were treated with Con A in the presence of vehicle, tacrolimus, quercetin or two different concentrations of tacrolimus (10^−8.2 and 10^−8.5 M) and increasing doses of quercetin at a high cell concentration (FIG. 14) or at a low cell concentration (FIG. 15). […] There was no significance difference between the effect of quercetin on tacrolimus induced cell suppression in vitro at the different concentrations used for quercetin.

[5] = cited from earlier work
[6] = cited from earlier work; remark: listed apart in the source
[7] = liver transplantation, U.S. study, 12-month post-transplant; cited from earlier work
[8] = cited from earlier work; remark: listed apart in the source
[9] = tested on: mouse spleen cells, response to LPS; assay: In vitro LPS assay on spleen cells; assay type: cell-based; details: high ([…]10^6 cells/well) and low (8×10^5 cells/well) cell concentration
Excerpt: as §1, §2
FIGS. 10 and 11 show the effect of quercetin and tacrolimus on response of mouse spleen cells to LPS at a high (1.6×10^6 cells/well) and low (8×10^5 cells/well) cell concentration, respectively.

[10] = cited from earlier work; remark: listed apart in the source

## C=CC[C@@H]1/C=C(\C)C[C@H](C)C[C@H](OC)C2O[C@@](O)(C(=O)C(=O)N3CCCC[C@H]3C(=O)O[C@H](/C(C)=C/[C@@H]3CC[C@@H](O)[C@H](OC)C3)[C@H](C)[C@@H](O)CC1=O)[C@H](C)C[C@@H]2OC (relative stereo) [Prograf, [3S-[3R[E(1S*,3S*,4S*)], 4S*,5R*,8S*,9E,12R*,14R*,15S*,16R*,18S*,19S*,26aR*]]-,6,8,11,12,13,14,15,16,17,18,19,24,25,26,26a-hexadecahydro-5,19-dihydroxy-3-[2-(4-hydroxy-3-methoxycyclohexyl)-1-methylethenyl]-14,16-dimethoxy-4,10,12,18-tetramethyl-8-(2-propenyl)-15,19-epoxy-3H-pyrido[2,1-c][1,4]oxaazacyclotricosine-1,7,20,21 (4H,23H)-tetrone, monohydrate]
[1]
  effect on MLR (lymphocyte proliferation, thymidine incorporation): inhibited MLR
[2]
  Adverse event: Abdominal Pain: 29%
  Adverse event: Anemia: 5%
  Adverse event: Anorexia: 7%
  Adverse event: Ascites: 7%
  Adverse event: Asthenia: 11%
  Adverse event: Atelectasis: 5%
  Adverse event: BUN Increased: 12%
  Adverse event: Back Pain: 17%
  Adverse event: Constipation: 23%
  Adverse event: Creatinine Increased: 24%
  Adverse event: Diarrhea: 37%
  Adverse event: Dyspnea: 5%
  Adverse event: Fever: 19%
  Adverse event: Headache: 37%
  Adverse event: Hyperglycemia: 33%
  Adverse event: Hyperkalemia: 13%
  Adverse event: Hypertension: 38%
  Adverse event: Hypokalemia: 13%
  Adverse event: Hypomagnesemia: 16%
  Adverse event: Insomnia: 32%
  Adverse event: Kidney Function Abnormal: 36%
  Adverse event: LFT Abnormal: 6%
  Adverse event: Leukocytosis: 8%
  Adverse event: Nausea: 32%
  Adverse event: Oliguria: 19%
  Adverse event: Pain: 24%
  Adverse event: Paresthesia: 17%
  Adverse event: Peripheral Edema: 12%
  Adverse event: Pleural Effusion: 36%
  Adverse event: Pruritus: 15%
  Adverse event: Rash: 10%
  Adverse event: Thrombocytopenia: 14%
  Adverse event: Tremor: 48%
  Adverse event: Urinary Tract Infection: 21%
  Adverse event: Vomiting: 14%
[3]; adult rats, IV
  dose at or above which mortalities were seen: ≥ 16 × the recommended human IV dose
[3]; adult rats, oral
  dose at or above which mortalities were seen: ≥ 52 × the recommended human oral dose
[3]; immature rats, oral
  dose at or above which mortalities were seen: ≥ 16 × the recommended oral dose
[4]
  effect on response of spleen cells to Con A (proliferation): inhibited Con A-induced proliferation in a dose dependent manner
[5]
  aqueous solubility: poor
[6]; European heart study, target range 5-15 ng/mL
  patients with trough concentrations within the pre-defined target range: 74-86%
[6]; heart transplant patients, European trial
  Adverse event: Tremor: 15%
[7]
  Adverse event: Abdominal Pain: 59%
  Adverse event: Anemia: 47%
  Adverse event: Anorexia: 34%
  Adverse event: Ascites: 27%
  Adverse event: Asthenia: 52%
  Adverse event: Atelectasis: 28%
  Adverse event: BUN Increased: 30%
  Adverse event: Back Pain: 30%
  Adverse event: Constipation: 24%
  Adverse event: Creatinine Increased: 39%
  Adverse event: Diarrhea: 72%
  Adverse event: Dyspnea: 29%
  Adverse event: Fever: 48%
  Adverse event: Headache: 64%
  Adverse event: Hyperglycemia: 47%
  Adverse event: Hyperkalemia: 45%
  Adverse event: Hypertension: 47%
  Adverse event: Hypokalemia: 29%
  Adverse event: Hypomagnesemia: 48%
  Adverse event: Insomnia: 64%
  Adverse event: Kidney Function Abnormal: 40%
  Adverse event: LFT Abnormal: 36%
  Adverse event: Leukocytosis: 32%
  Adverse event: Nausea: 46%
  Adverse event: Oliguria: 18%
  Adverse event: Pain: 63%
  Adverse event: Paresthesia: 40%
  Adverse event: Peripheral Edema: 26%
  Adverse event: Pleural Effusion: 30%
  Adverse event: Pruritus: 36%
  Adverse event: Rash: 24%
  Adverse event: Thrombocytopenia: 24%
  Adverse event: Tremor: 56%
  Adverse event: Urinary Tract Infection: 16%
  Adverse event: Vomiting: 27%
[8]; liver transplant recipients, two randomized studies
  Neurotoxicity, including tremor, headache, and other changes in motor function, mental status, and sensory function: approximately 55%
[8]; two randomized comparative liver transplant trials
  proportion of patients reporting more than one adverse event: 99.8%
[9]
  effect on response of spleen cells to LPS (proliferation): inhibited LPS-induced proliferation in a dose dependent manner
[10]
  erythrocyte and plasma protein binding: extensive
